What all share (assay type): ADME, organism-based
Common to all, as to details: in vivo

A short description of data set [1]: Cmax in rat at 0.5 mg/kg, iv and 5 mg/kg, po.
A short description of data set [2]: Volume of distribution in rat at 0.5 mg/kg, iv and 5 mg/kg, po.
The test system of the next data set is Rattus norvegicus. The data set is described as follows: Liver blood flow in rat at 0.5 mg/kg, iv and 5 mg/kg, po.
Data set [3] is described as follows: Bioavailability in rat at 0.5 mg/kg, iv and 5 mg/kg, po.

Data on one compound can be found in ChEMBL document CHEMBL1177769, “Reducing ion channel activity in a series of 4-heterocyclic arylamide FMS inhibitors” (Bioorg Med Chem Lett, 2010).

A word on the Cmax: it is the highest concentration seen after dosing. In general, bioavailability refers to dose-corrected exposure relative to a reference, in per cent. High values mean good availability, low ones poor availability.

Turning to `CN1CC(c2ccc(NC(=O)c3nc(C#N)c[nH]3)c(C3=CCCCC3)c2)CN(C)S1(=O)=O`, in data set [1], the Cmax was 839 ng/mL. Besides, in data set [2], the Vd amounted to 0.564 L/kg. The LBF in the data set on Rattus norvegicus was found to be 55 mL/min/kg. The same compound had a bioavailability in data set [3] of 15%.
